Source: ChEMBL document CHEMBL3784964, “Targeting the trehalose utilization pathways of Mycobacterium tuberculosis” (Medchemcomm, 2016)
Values after ≈ are worked out from the molar mass of the structure shown.

Assays:
[1] = tested on: Mycobacterium tuberculosis; experiment: Antimycobacterial activity against Mycobacterium tuberculosis H37Rv; assay type: functional
[2] = tested on: Mycobacterium tuberculosis; experiment: Antimycobacterial activity against Mycobacterium tuberculosis H37Ra ATCC 25177; assay type: functional
[3] = tested on: Mycobacterium tuberculosis; experiment: Antimycobacterial activity against Mycobacterium tuberculosis H37Rv by microdilution method; assay type: functional
[4] = tested on: Mycobacterium tuberculosis; experiment: Antimycobacterial activity against Mycobacterium tuberculosis H37Rv by 2-fold broth dilution method; assay type: functional
[5] = tested on: Mycobacterium tuberculosis; experiment: Inhibition of Mycobacterium tuberculosis antigen 85C mycolyltransferase activity at 100 ug/ml incubated for 30 mins by scintillation counting method in presence of [14C]-trehalose relative to control
[6] = Inhibition of Mycobacterium tuberculosis antigen 85C acyltransferase activity preincubated with enzyme by UV-vis spectrophotometric analysis
[7] = Competitive inhibition of recombinant Mycobacterium smegmatis trehalose synthase using DNPGlc as substrate by Dixon plot analysis; parameters: species or system Mycolicibacterium smegmatis
[8] = Inhibition of recombinant Mycobacterium tuberculosis H37Rv N-terminal His-tagged glgE expressed in Escherichia coli T7 Rosetta cells using MESG as substrate measured every 5 sec for 10 mins by PNP enzyme coupled assay
[9] = Inhibition of Mycobacterium tuberculosis antigen 85C mycolyltransferase activity using trehalose as substrate measured every 20 sec for 30 mins by 4-methylumbelliferyl butyrate fluorescence assay
[10] = tested on: Mycobacterium tuberculosis; experiment: Antimycobacterial activity against Mycobacterium tuberculosis H37Rv mc26206 incubated for 96 hrs by resazurin microtiter assay; assay type: functional; conditions: H37Rv mc26206, 96 h
[11] = tested on: Mycobacterium tuberculosis; experiment: Antimycobacterial activity against Mycobacterium tuberculosis incubated for 96 hrs by resazurin microtiter assay; assay type: functional
[12] = Inhibition of Mycobacterium tuberculosis antigen 85C mycolyltransferase activity incubated for 30 mins by scintillation counting method in presence of [14C]-trehalose

**Q.** Which MIC [1] does the source give for `CCCn1cnc2cc(NCc3ccc(Cl)cc3Cl)ccc21` here?
**A.** 16 µM

**Q.** Which MIC [1] does the source give for `O=C(Nc1ccc(F)c(F)c1F)NC12CC3CC(CC(C3)C1)C2` here?
**A.** 0.5 µg/mL

**Q.** Which MIC [2] does the source give for `CCCCCCCCNC[C@H]1O[C@H](O[C@H]2O[C@H](CNCCCCCCCC)[C@@H](O)[C@H](O)[C@H]2O)[C@H](O)[C@@H](O)[C@@H]1O` here?
**A.** 4 µg/mL (≈ 7.08 µM)

**Q.** Which MIC [3] does the source give for `COC(=O)c1c(NC(=O)c2c(F)c(F)c(F)c(F)c2F)sc2c1CCCCC2` here?
**A.** 1 µM (≈ 0.419 µg/mL)

**Q.** With `CC(C)=CCC/C(C)=C/CNCCNC1C2CC3CC(C2)CC1C3` (stereo not drawn) [SQ109] as the compound, how does the MIC [4] read?
**A.** 1.5 µg/mL (≈ 4.54 µM)

**Q.** For `CCCCCCCCS(=O)(=O)NC[C@H]1O[C@H](O[C@H]2O[C@H](CNS(=O)(=O)CCCCCCCC)[C@@H](O)[C@H](O)[C@H]2O)[C@H](O)[C@@H](O)[C@@H]1O`, which MIC [2] is on record?
**A.** 16 µg/mL (≈ 23.1 µM)

**Q.** Which inhibition [5] does the source give for `[N-]=[N+]=NC[C@H]1O[C@H](O[C@H]2O[C@H](CO)[C@@H](O)[C@H](O)[C@H]2O)[C@H](O)[C@@H](O)[C@@H]1O` here?
**A.** 60%

**Q.** Which IC50 [6] does the source give for `COC(=O)CC[C@H]1O[C@@H](OC)[C@@H](O)[C@@H]1O` here?
**A.** 25 mM

**Q.** For `c1ccc(CNC23CC4CC(CC(C4)C2)C3)cc1`, which MIC [3] is on record?
**A.** 10 µM (≈ 2.41 µg/mL)

**Q.** With `OC[C@@H]1[C@@H](O)[C@H](O)C2[C@H](O)[C@@H](O)CN21` (stereo partly drawn) as the compound, how does the Ki [7] read?
**A.** 2500 nM

**Q.** Which Ki [7] does the source give for `OC[C@H]1NC[C@H](O)[C@@H](O)[C@@H]1O` [DUVOGLUSTAT] here?
**A.** 250 nM

**Q.** With `CN1CCN(Cc2cc(-c3ccc(Cl)cc3)n(-c3ccc(Cl)cc3)c2-c2ccccc2)CC1` as the compound, how does the MIC [1] read?
**A.** 1.5 µg/mL

**Q.** For `OC[C@H]1N[C@H](CO)[C@@H](O[C@H]2O[C@H](CO)[C@@H](O)[C@H](O)[C@H]2O)[C@@H]1O`, which Ki [8] is on record?
**A.** 237 µM

**Q.** For `CCCCC(CC)CNC[C@H]1O[C@H](O[C@H]2O[C@H](CNCC(CC)CCCC)[C@@H](O)[C@H](O)[C@H]2O)[C@H](O)[C@@H](O)[C@@H]1O` (stereo partly drawn), which MIC [2] is on record?
**A.** 32 µg/mL (≈ 56.7 µM)

**Q.** For `CCOC(=O)c1c(NC(=O)SC[C@H]2O[C@@H](O)[C@@H](O)[C@@H]2O)sc2c1CCCC2`, which Ki [9] is on record?
**A.** 18.2 µM

**Q.** With `CCCCCCCCCCNC[C@H]1O[C@H](O[C@H]2O[C@H](CNCCCCCCCCCC)[C@@H](O)[C@H](O)[C@H]2O)[C@H](O)[C@@H](O)[C@@H]1O` as the compound, how does the MIC [2] read?
**A.** 1.3 µg/mL (≈ 2.09 µM)

**Q.** For `CCCCCCCCCCCCNC[C@H]1O[C@H](O[C@H]2O[C@H](CNCCCCCCCCCCCC)[C@@H](O)[C@H](O)[C@H]2O)[C@H](O)[C@@H](O)[C@@H]1O`, which MIC [2] is on record?
**A.** 8 µg/mL (≈ 11.8 µM)

**Q.** Which Ki [7] does the source give for `O=C(Nc1ccccc1)O/N=C1\N[C@H](CO)[C@@H](O)[C@H](O)[C@H]1O` here?
**A.** 2100 nM

**Q.** For `CCc1sc(NC(=O)c2c(F)c(F)c(F)c(F)c2F)c(C(=O)OC(C)C)c1C`, which MIC [3] is on record?
**A.** 1 µM (≈ 0.421 µg/mL)

**Q.** With `O=c1c2ccccc2[se]n1-c1ccccc1` [EBSELEN] as the compound, how does the MIC [10] read?
**A.** 20 µg/mL (≈ 72.9 µM)

**Q.** Which MIC [11] does the source give for `CCCC1CCc2c(sc(N)c2C#N)C1` (stereo not drawn) here?
**A.** 100 µM (≈ 22 µg/mL)

**Q.** Which MIC [3] does the source give for `CCOC(=O)c1c(NC(=O)c2c(F)c(F)c(F)c(F)c2F)sc(C(N)=O)c1C` here?
**A.** 0.5 µM (≈ 0.211 µg/mL)

**Q.** With `CCCCCCCCS(=O)(=O)OCCN1C(=O)c2ccccc2C1=O` as the compound, how does the IC50 [12] read?
**A.** 4.3 µM
